Earlier results as cited in US9459262B2, “Systems and methods for determining the percentage of glycated hemoglobin” (Relia Diagnostic Systems, Inc., priority 2009, dated 2016).

settings: not given

Row | Ionization constant (pKa) | SMILES
1 | 4.0 | OB(O)c1cccc2cccnc12 [8-Quinolinylboronic acid]
2 | 9.3 | Cc1ccc(B(O)O)cc1 [4-Methylphenylboronic acid]
3 | 9.7 | Cc1ccccc1B(O)O [2-Methylphenylboronic acid]
4 | 8.4 | O=C(O)c1ccc(B(O)O)cc1 [4-Carboxyphenylboronic acid]
5 | 7.4 | OB(O)c1cc(Cl)cc(Cl)c1 [3,5-Dichlorophenylboronic acid]
6 | 9.3 | COc1ccc(B(O)O)cc1 [4-Methoxyphenylboronic acid]
7 | 10.4 | CB(O)O [Methylboronic acid]
8 | 7.1 | O=[N+]([O-])c1ccc(B(O)O)cc1 [4-Nitrophenylboronic acid]
9 | 6.9 | COC(=O)c1cc(B(O)O)cc([N+](=O)[O-])c1 [3-Methoxycarbonyl-5-nitrophenylboronic acid]
10 | 7.2 | OB(O)c1cc(C(F)(F)F)cc(C(F)(F)F)c1 [3,5-Bis(trifluoromethyl)phenylboronic acid]
11 | 8.6 | OB(O)c1ccc(Br)cc1 [4-Bromophenylboronic acid]
12 | 9.2 | O=[N+]([O-])c1ccccc1B(O)O [2-Nitrophenylboronic acid]
13 | 9.1 | OB(O)c1ccc(F)cc1 [4-Fluorophenylboronic acid]
14 | 8.7 | COc1cccc(B(O)O)c1 [3-Methoxyphenylboronic acid]
15 | 9.1 | Cc1cc(C)cc(B(O)O)c1 [3,5-Dimethylphenylboronic acid]
16 | 4.0 | OB(O)c1cccnc1 [3-Pyridylboronic acid]
17 | 9.0 | Cc1cccc(B(O)O)c1 [3-Methylphenylboronic acid]

same assay, conditions: second value

Row | Ionization constant (pKa) | SMILES
18 | 10 | OB(O)c1cccc2cccnc12 [8-Quinolinylboronic acid]
19 | 8.2 | OB(O)c1cccnc1 [3-Pyridylboronic acid]
